Results on one molecule are retold here after patent US20060159715A1, “Conjugate of fine porous particles with polymer molecules and the utilization thereof” (priority 2003, published 2006).

For the test the following is noted: L-DOPA added after three-hour incubation in phosphate buffer; FIG. 5. The source says: Hydroquinone was supported on conjugate in the same manner as in Example 4 except that hydroquinone was used in place of pyrene. Hydroquinone and clay particles-supported hydroquinone were examined for the resistance to the oxidation of L-DOPA.

For the molecule `Oc1ccc(O)cc1` [hydroquinone, Hydroquinone], the “antioxidation property against L-DOPA oxidation” value is reported as “completely lost antioxidation property”.
